Experiments:
TNF-α = experiment: Real time PCR, left ventricular TNF-α mRNA expression; type: in vivo, rat; conditions: LPS infusion
Protocol: Total RNA was isolated from left ventricular tissue using the SV Total Isolation System (Promega Corp., Madison, Wis.). Isolation was performed according to manufacturer instructions and followed by DNAse treatment to eliminate residual genomic DNA contamination. RNA integrity was determined by loading 1.0 μg of total RNA isolate from each sample onto a 1.0% agarose gel and staining with ethidium bromide to visualize the 18 and 28s RNA bands. The amount of RNA recovered was determined using the Ribogreen RNA Quantification Kit (Molecular Probes, Eugene, Oreg.). […]
Specific primer sequences, GenBank accession numbers, Sequence Identifiers, and product sizes are disclosed in Table 5. […] For real-time PCRs, SYBR PCR Master Mix (Bio-Rad Laboratories, Hercules, Calif.) was used, and thermocycling and fluorescence detection was performed using a Stratagene Mx3000p real-time PCR machine.
After confirmation of primer efficiency and specificity, the concentrations of purified products generated by standard PCR were determined using Molecular Probe's Picogreen DNA quantification kit, and PCR products were serially diluted to obtain standards containing 10^1, 10^2, 10^3, 10^4, 10^5, and 10^6 copies of synthetic template. […]

rat isolated hearts = experiment: Langendorff rat isolated heart procedure: left ventricular function and coronary flow; type: in vivo; conditions: for Coronary flow Baseline / Coronary flow 30 min / Coronary flow 60 min / Coronary flow 90 min / Coronary flow 120 min / Coronary flow 150 min: mean ± SEM
Protocol: Male Sprague Dawley, virus-free rats (Harlan) were used in each of the examples presented herein. After arrival and a brief acclimation (72 hours minimum), animals were randomized into control or experimental groups. The control and experimental protocols (Table 1) and experimental group treatments (Table 2) are described below.
Rat isolated heart experiments were performed via Langendorff method. […] CON hearts received vehicle (IP sterile water). […] Heparin was allowed to circulate for 60 seconds at which time a thoracotomy was performed to expose the heart. The heart was quickly removed, placed in ice cold Krebs-Ringers bicarbonate buffer (KRB, described below) and weighed. The ascending aorta was rapidly cannulated and the heart was attached, via the cannula, to the perfusion apparatus. The hearts were perfused with a modified KRB containing (102 mM NaCl, 4.75 mM KCl, 1.20 mM KH2PO4, 1.18 mM MgSO4, 22.75 mM NaHCO3, 11.50 mM Glucose, 4.96 mM Na-Pyruvate, 5.40 mM Na-Fumarate and 1 mM CaCl2), at a temperature of 37.0° C., and pH 7.4 as maintained by vigorous bubbling with 95%/5% O2/CO2.
At all times, hearts were perfused with KRB at a pressure of 72-78 mmHg set by the height of the water-jacketed reservoir. The left atrium of the heart was then removed, just above the left atrio-ventricular valve. A latex balloon was used to measure left ventricular pressure as an index of cardiac performance. The balloon was constructed by filling the reservoir tip of a latex condom with degassed water. PE-50 tubing, pre-filled with degassed water and attached to a stopcock/Hamilton screw-top syringe assembly, was flanged and placed into the tip of the condom. Surgical silk (5-0) was used to gather the condom tip around the flanged end of the tubing and form a seal, at which time the excess latex was removed.
The balloon/stopcock assembly was attached to a pressure transducer (Spectramed-Statham) and inserted into the left ventricle to record cardiac performance data via Windaq (DATAQ, CA). Two platinum electrodes, connected to a electrical stimulator (Grass Model 92C), were placed at the lateral edges of the right atria in order to pace the heart at 300 BPM using a voltage 10% greater than that required to capture rhythm. The volume in the latex balloon was increased to produce a left ventricular diastolic pressure (LVdiaP) of 10.0 mmHg.
The heart was then perfused normally for 30 minutes, a period designated as the equilibration phase. During this phase of perfusion hearts had to maintain a LVdiaP of 10.0±2.0 mmHg to be included in the study. At the end of thirty minutes, baseline measurements of coronary flow and left ventricular pressure were made. This time point was designated as 0 minutes. At this time, hearts receiving LPS (10 μg/mL/min) were infused via injection port/stop cock assembly, into the KRB perfusion stream, just above the aortic cannula for a total infusion time of 60 minutes. Hearts not receiving LPS were infused with vehicle (sterile water, 1.25% coronary flow (mL)·min). At 60 minutes, infusion was halted and normal KRB perfusion continued for 90 minutes (total experimental time post-equilibration=150 minutes).
Measurements of coronary flow and left ventricular pressure were taken every 30 minutes starting at 0 minutes. At the termination of the experiment, the left ventricle was rapidly excised from the whole heart, flash frozen in liquid nitrogen and stored at −80.0° C. for further analysis.
Statistical analysis was performed on data generated from these experimental protocols using a one-way analysis of variance (one-way ANOVA) with pair wise comparisons (Fisher Least Significant Difference test (LSD)). Data is presented herein as mean±standard error of the mean (SEM).
The Fisher LSD was used to determine whether 30 and 150 min values differed from baseline values. In addition, changes from baseline values (e.g., 30 or 150 minute value−respective baseline value) were compared among groups.

ADA1 = experiment: Real time PCR, left ventricular ADA1 mRNA expression; type: in vivo, rat
Protocol: Total RNA was isolated from left ventricular tissue using the SV Total Isolation System (Promega Corp., Madison, Wis.). Isolation was performed according to manufacturer instructions and followed by DNAse treatment to eliminate residual genomic DNA contamination. RNA integrity was determined by loading 1.0 μg of total RNA isolate from each sample onto a 1.0% agarose gel and staining with ethidium bromide to visualize the 18 and 28s RNA bands. The amount of RNA recovered was determined using the Ribogreen RNA Quantification Kit (Molecular Probes, Eugene, Oreg.). 1 μg of total RNA was reverse transcribed in a […] using random hexamer primers with enzyme and buffers supplied in the cDNA First Strand Synthesis kit (MRI Fermentas, Hanover, Md.). First strand cDNA was treated with ribonuclease H to remove residual RNA.
Real time PCR (qPCR) was performed to measure RNA transcripts for left ventricular TNF-α and ADA1. Three housekeeping genes were selected as follows to produce an intergroup correction factor for target transcripts: Cyclophilin A, hypoxanthine-guanine physphoribosyltransferase (HPRT), and β-actin. Primers were selected using Primer 3 software (Rosen and Skaletsky, Whitehead Institute for Biomedical Research) with the rat genomic sequences for TNF gene, ADA gene, HPRT gene, β-actin gene, and Cyclophilin gene as templates. BLAST (National Center for Biotechnology Information) searches were used to verify that the selected primers were specific for the designated target.
Specific primer sequences, GenBank accession numbers, Sequence Identifiers, and product sizes are disclosed in Table 5. Primers were used in a standard PCR with the 2× Master Mix PCR reagent (MRI Fermentas) and cDNA from the tissue of interest as a template. The thermocycling profile consisted of one cycle of 95° C. for 10 minutes, followed by 41 cycles of 95° C. for 1 minute, 61° C. for 1 minute, and 72° C. for 1 minute and a final cycle of 72° C. for 10 minutes. Products were run on a 1.0% agarose gel and stained with ethidium bromide to confirm that only one band was amplified and that no primer dimers were present. PCR products were then column-purified (QIAGEN, Valencia, Calif.) and sequenced to confirm target specificity. For real-time PCRs, SYBR PCR Master Mix (Bio-Rad Laboratories, Hercules, Calif.) was used, and thermocycling and fluorescence detection was performed using a Stratagene Mx3000p real-time PCR machine.
Standards were then amplified by real-time PCR, and standard curves were generated using Stratagene Mx3000P software. […]
A housekeeping gene was selected for normalization of the real-time PCR data for the TNF-α and ADA1 transcripts. Three potential gene (mRNA) products were analyzed for this purpose: CYC, β-actin and HPRT.

ADA = ADA (Homo sapiens, UniProt P00813); conditions: cited from earlier work
ADA, sequence (P00813 whole entry, species assumed): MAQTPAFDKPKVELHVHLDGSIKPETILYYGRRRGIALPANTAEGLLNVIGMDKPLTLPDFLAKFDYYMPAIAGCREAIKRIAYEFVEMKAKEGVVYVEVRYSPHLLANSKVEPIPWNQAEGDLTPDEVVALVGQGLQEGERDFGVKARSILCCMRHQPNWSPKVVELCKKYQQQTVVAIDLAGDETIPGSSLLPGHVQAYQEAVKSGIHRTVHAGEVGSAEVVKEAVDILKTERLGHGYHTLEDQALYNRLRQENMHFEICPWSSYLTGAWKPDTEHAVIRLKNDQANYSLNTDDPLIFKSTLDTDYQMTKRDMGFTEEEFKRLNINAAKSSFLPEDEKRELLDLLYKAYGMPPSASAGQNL

Oc1ncnc2[nH]ncc12 [ALO, allopurinol]
left ventricular TNF-α mRNA expression compared to LPS hearts (TNF-α): significantly lower
Coronary flow Baseline (rat isolated hearts; LPS infusion 10 μg/mL/min (-LPS group)): 24.1 ± 1.3 mL/min
Coronary flow 30 min (rat isolated hearts; LPS infusion (-LPS group)): 24.2 ± 1.1 mL/min
Coronary flow 60 min (rat isolated hearts; LPS infusion (-LPS group)): 24.7 ± 1.4 mL/min
Coronary flow 90 min (rat isolated hearts; LPS infusion (-LPS group)): 24.5 ± 1.4 mL/min
Coronary flow 120 min (rat isolated hearts; LPS infusion (-LPS group)): 23.4 ± 1.7 mL/min
Coronary flow 150 min (rat isolated hearts; LPS infusion (-LPS group)): 22.5 ± 1.7 mL/min
+dP/dt compared to respective baseline (rat isolated hearts; LPS infusion, 30 minutes): significantly greater
LV developed pressure compared to respective baseline (rat isolated hearts; LPS infusion, 30 minutes): significantly greater
LV diastolic pressure compared to respective baseline (rat isolated hearts; LPS infusion, 30 minutes): significantly decreased
increase in LV developed pressure compared to LPS group (rat isolated hearts; LPS infusion, 30 minutes): of a similar magnitude
increase in LV systolic pressure compared to LPS group (rat isolated hearts; LPS infusion, 30 minutes): of a similar magnitude
increase in −dP/dt compared to LPS group (rat isolated hearts; LPS infusion, 30 minutes): similar
+dP/dt compared to LPS hearts (rat isolated hearts; LPS infusion, 150 minutes): did not statistically change
+dP/dt compared to respective baseline (rat isolated hearts; LPS infusion, 150 minutes): significantly decreased
LV developed pressure compared to LPS hearts (rat isolated hearts; LPS infusion, 150 minutes): of a similar magnitude
LV developed pressure compared to respective baseline (rat isolated hearts; LPS infusion, 150 minutes): significantly decreased
LV diastolic pressure (LPS-induced increase) compared to LPS hearts (rat isolated hearts; LPS infusion, 150 minutes): attenuation
LV systolic pressure compared to respective baseline (rat isolated hearts; LPS infusion, 150 minutes): significantly decreased
−dP/dt compared to LPS alone / among groups (rat isolated hearts; LPS infusion, 150 minutes): did not significantly affect
−dP/dt compared to respective baseline (rat isolated hearts; LPS infusion, 150 minutes): significantly decreased
Coronary flow 30 min (rat isolated hearts; vehicle infusion (-CON group)): 25.9 ± 1.8 mL/min
Coronary flow 60 min (rat isolated hearts; vehicle infusion (-CON group)): 25.1 ± 1.9 mL/min
Coronary flow 90 min (rat isolated hearts; vehicle infusion (-CON group)): 24.7 ± 1.9 mL/min
Coronary flow 120 min (rat isolated hearts; vehicle infusion (-CON group)): 24.1 ± 1.6 mL/min
Coronary flow 150 min (rat isolated hearts; vehicle infusion (-CON group)): 22.6 ± 1.4 mL/min
Coronary flow Baseline (rat isolated hearts; vehicle infusion (-CON group)): 25.4 ± 2.1 mL/min
LV diastolic pressure compared to respective baseline (rat isolated hearts; vehicle infusion, 30 minutes): No changes
LV developed pressure compared to respective baseline (rat isolated hearts; vehicle infusion, 150 minutes): No changes
LV diastolic pressure compared to respective baseline (rat isolated hearts; vehicle infusion, 150 minutes): remained unchanged
LV systolic pressure compared to respective baseline (rat isolated hearts; vehicle infusion, 150 minutes): no change
−dP/dt compared to respective baseline (rat isolated hearts; vehicle infusion, 150 minutes): remained unchanged
left ventricular ADA1 mRNA expression (copy numbers) compared to CON and LPS hearts (ADA1; LPS infusion): No significant differences
left ventricular ADA1 mRNA expression (copy numbers) compared to CON and LPS hearts (ADA1; vehicle infusion): No significant differences

OC[C@H]1O[C@@H](n2cnc3c2N=CNCC3O)C(O)[C@H]1O (some centres unmarked) [coformycin]
Ki (ADA): 0.01 nM

From patent publication US20100261666A1, “COMPOSITIONS AND METHODS FOR THE TREATMENT OF MYOCARDIAL DYSFUNCTION ASSOCIATED WITH SIRS OR SEPSIS” (THE BOARD OF TRUSTEES OF THE UNIVERSITY OF ILLINOIS, priority 2009, published 2010)
